Values after ≈ are worked out from the molar mass of the structure shown. Where two headings read alike, the source gives them in different places.
Key:
[1] = Equilibrium solubility, shake-flask method; format: physicochemical; conditions: for solubility at 24 h: thermodynamic from solid, read-out: Solubility S2 × 10^6
Procedure: The standard shake-flask method was applied to determine solubility. The saturated solutions of the studied compound were obtained in glass screw-capped vials with the respective solvent, which were vigorously stirred in an air thermostat. The volumes of water, 1-octanol, n-hexane, and ethanol equaled 7, 2, 7, and 2 mL, respectively. […] After this time period, the saturated solutions stayed in the thermostat during the night, and then the non-dissolved substance was separated from the solution via centrifugation (Biofuge pico, Thermo Electron LED GmbH, Langenselbold, Germany) at the respective temperature for 20 min at 10,000 rpm. […] The experimental results were reported as an average of at least three replicated experiments with an accuracy of 2–4%.
The dissolution thermodynamic parameters on the standard state were determined using mole fraction unitary units. Recalculation of the molar solubility to the mole fraction was made as follows:(1) X2=M1S2/S2(M1−M2)+1000ρ, where S2 is the molar solubility of solute (M), M1 and M2 are the molar masses of solvent and solute, respectively, and ρ (g∙cm^−3) is the density of pure solvents. […] The density values of the pure solvents were used in calculations (Table S1).

[2] = Apparent distribution coefficient, 1-octanol/water, isothermal shake-flask; format: physicochemical; conditions: 298.15 K
Procedure: The well-known isothermal shake-flask method was applied for the determination of the apparent distribution coefficients in the 1-octanol/water ( Dappoct/w ) and n-hexane/water ( Dapphex/w ) systems. The mutually saturated solvents were prepared by mixing water and organic phases for 24 h and settling and separating from each other. The stock solutions of the drug were made from 1-octanol saturated with water for the 1-octanol/water distribution, and n-hexane saturated with water for the n-hexane/water system. An aliquot of the stock solution was placed in a glass vial together with an aliquot of the respective phase and mixed for 24 h at five temperatures, from 293.15 to 313.15 K (±0.1 K). The concentrations of the compounds were determined spectrophotometrically (Shimadzu 1800, Kyoto, Japan) in a UV region, with an accuracy of 2–4%. The reported experimental values represent the average of at least four replicate experiments.
The apparent distribution coefficients were calculated from the molar concentrations of the substance in the phases using the following equation:(10) DCorg/w=C2org/w/C2w/org where DCorg/w is the apparent distribution coefficient, C2org/w and C2w/org are the concentrations (M) of the compound after the distribution in the 1-octanol or n-hexane and water phases, respectively. The apparent distribution coefficients in the mole fraction scale ( DXorg/w ) were calculated by the equation:(11) DXorg/w=X2org/w/X2w/org where X2org/w and X2w/org are the concentrations (mole fract.) of the compound after distribution. The standard Gibbs energy of the transfer ( ΔGtr0) from water to the organic phase was calculated as follows:(12) ΔGtr0=−RT(lnDXorg/w)

SMILES: CC(O)(CS(=O)(=O)c1ccc(F)cc1)C(=O)Nc1ccc(C#N)c(C(F)(F)F)c1 (stereo not shown) [BCL, bicalutamide]
- Solubility X2 × 10^4 ([1]; 1-octanol, 293.15 K): 2.23 mole fract.
- Solubility X2 ([1]; 1-octanol, 298.15 K): 2.57 × 10^−4 mole fract.
- Solubility X2 × 10^4 ([1]; 1-octanol, 298.15 K): 2.57 mole fract.
- Solubility X2 × 10^4 ([1]; 1-octanol, 303.15 K): 3.00 mole fract.
- Solubility X2 × 10^4 ([1]; 1-octanol, 308.15 K): 3.40 mole fract.
- Solubility X2 × 10^4 ([1]; 1-octanol, 313.15 K): 3.95 mole fract.
- Solubility X2 × 10^3 ([1]; ethanol, 293.15 K): 1.15 mole fract.
- Solubility X2 ([1]; ethanol, 298.15 K): 1.42 × 10^−3 mole fract.
- Solubility X2 × 10^3 ([1]; ethanol, 298.15 K): 1.42 mole fract.
- X2 298.15 ([1]; ethanol, 298.15 K): 1.42 × 10^−3
- Solubility X2 × 10^3 ([1]; ethanol, 303.15 K): 1.74 mole fract.
- Solubility X2 × 10^3 ([1]; ethanol, 308.15 K): 2.11 mole fract.
- Solubility X2 × 10^3 ([1]; ethanol, 313.15 K): 2.43 mole fract.
- solubility in ethanol as compared to 1-octanol ([1]; mole fraction, 298.15 K): 5.5 fold
- Solubility X2 × 10^6 ([1]; n-hexane, 293.15 K): 0.74 mole fract.
- Solubility X2 ([1]; n-hexane, 298.15 K): 1.07 × 10^−6 mole fract.
- Solubility X2 × 10^6 ([1]; n-hexane, 298.15 K): 1.07 mole fract.
- X2 298.15 ([1]; n-hexane, 298.15 K): 1.07 × 10^−6
- Solubility X2 × 10^6 ([1]; n-hexane, 303.15 K): 1.50 mole fract.
- Solubility X2 × 10^6 ([1]; n-hexane, 308.15 K): 2.04 mole fract.
- Solubility X2 × 10^6 ([1]; n-hexane, 313.15 K): 2.76 mole fract.
- Solubility X2 × 10^6 ([1]; n-hexane, 318.15 K): 3.63 mole fract.
- solubility at 24 h ([1]; n-hexane, organic solvent or mixture, n-hexane, 293.15 K): 5.67 µM (≈ 2.44 µg/mL)
- solubility at 24 h ([1]; n-hexane, organic solvent or mixture, n-hexane, 298.15 K): 8.12 µM (≈ 3.49 µg/mL)
- solubility at 24 h ([1]; n-hexane, organic solvent or mixture, n-hexane, 303.15 K): 11.3 µM (≈ 4.88 µg/mL)
- solubility at 24 h ([1]; n-hexane, organic solvent or mixture, n-hexane, 308.15 K): 15.3 µM (≈ 6.59 µg/mL)
- solubility at 24 h ([1]; n-hexane, organic solvent or mixture, n-hexane, 313.15 K): 20.5 µM (≈ 8.83 µg/mL)
- solubility at 24 h ([1]; n-hexane, organic solvent or mixture, n-hexane, 318.15 K): 26.8 µM (≈ 11.5 µg/mL)
- Solubility X2 × 10^7 ([1]; water, 293.15 K): 1.12 mole fract.
- Solubility X2 ([1]; water, 298.15 K): 1.47 × 10^−7 mole fract.
- Solubility X2 × 10^7 ([1]; water, 298.15 K): 1.47 mole fract.
- X2 298.15 ([1]; water, 298.15 K): 1.47 × 10^−7
- Solubility X2 × 10^7 ([1]; water, 303.15 K): 1.90 mole fract.
- Solubility X2 × 10^7 ([1]; water, 308.15 K): 2.35 mole fract.
- Solubility X2 × 10^7 ([1]; water, 313.15 K): 2.97 mole fract.
- solubility at 24 h ([1]; water, water, 293.15 K): 6.24 µM (≈ 2.69 µg/mL)
- solubility at 24 h ([1]; water, water, 298.15 K): 8.14 µM (≈ 3.5 µg/mL)
- solubility at 24 h ([1]; water, water, 303.15 K): 10.5 µM (≈ 4.53 µg/mL)
- solubility at 24 h ([1]; water, water, 308.15 K): 12.9 µM (≈ 5.57 µg/mL)
- solubility at 24 h ([1]; water, water, 313.15 K): 16.4 µM (≈ 7.05 µg/mL)
- experimental over calculated distribution coefficient ([2]; 1-octanol/water): 3.3 fold
- logP at 24 h ([2]; 1-octanol/water, read-out: logDCoct/w, experimental): 2.82 ± 0.09
- DCoct/w, experimental apparent distribution coefficient ([2]; 1-octanol/water, molarity scale): 662.29 ± 20.22
- ∆logDcalc ([2]; from calculated distribution coefficients): 2.30
- ∆logD ([2]; logDCoct/w − logDChex/w, experimental): 2.55
- DC/calcoct/w, calculated distribution coefficient ([2]; ratio of molar solubilities in 1-octanol and water): 199.02 ± 12.00
